From patent US7482339B2, “2-Naphthylimino-1,3-thiazine derivative” (Shionogi and Co., Ltd., priority 2003, dated 2009)
Read-outs that look alike come from different tables or passages of the source.

How the values were obtained:
human CB2R [1] = molecular target: T1, human CB2R (Homo sapiens, UniProt P34972); experiment: Human CB receptor binding inhibition ([3H]CP55940), CB2R; conditions: membranes of CB2R-expressing CHO cells, 0.5 nM [3H]CP55940, 2 hr at 25° C.; read-out: CB receptor binding inhibition Ki CB2
T1 construct: expressed in transfected cells; host or cells: CHO cells (crude membrane fractions)
T1 sequence (P34972 whole entry): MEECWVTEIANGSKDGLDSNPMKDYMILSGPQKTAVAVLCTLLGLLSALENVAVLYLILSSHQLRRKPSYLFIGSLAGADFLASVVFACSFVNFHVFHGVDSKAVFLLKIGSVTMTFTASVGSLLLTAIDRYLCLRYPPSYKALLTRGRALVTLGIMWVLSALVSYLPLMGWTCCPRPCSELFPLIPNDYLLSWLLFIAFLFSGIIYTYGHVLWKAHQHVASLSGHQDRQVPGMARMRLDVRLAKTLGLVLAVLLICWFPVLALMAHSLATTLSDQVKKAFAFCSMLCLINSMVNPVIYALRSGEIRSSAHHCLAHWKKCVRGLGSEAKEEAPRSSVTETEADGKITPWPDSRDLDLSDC
Procedure: (§1) The crude membrane fractions were then prepared from the CB1R or CB2R-expressing CHO cells. Receptor binding assay was performed by incubating the membranes with each test compound and 38,000 dpm [^3H]CP55940 (at a final concentration of 0.5 nM: PerkinElmer Life & Analytical Sciences) in the assay buffer (50 mM Tris-HCl, […], 3 mM MgCl2, pH 7.4) containing 0.5% bovine serum albumin (BSA) for 2 hr at 25° C. The incubation mixture was filtered through 1% polyethylenimine (PEI)-treated GF/C glass filter and washed with 50 mM Tris-HCl (pH 7.4) containing 0.1% BSA. The radioactivity was then counted with a liquid scintillation counter. Nonspecific binding was determined in the presence of 10 μM WIN55212-2 (a CBR agonist described in the patent U.S. Pat. No. 508,122, Sigma), and the specific binding was calculated by subtracting the nonspecific binding from the total binding. The IC50 value for each test compound was determined as the concentration at which 50 % of the specific binding was inhibited. As a consequence of these studies, the Ki values of each test compound were determined from the IC50 value and the Kd vale of [^3H]CP55940.

human CB1R [2] = molecular target: T2, human CB1R (Homo sapiens, UniProt P21554); experiment: Human CB receptor binding inhibition ([3H]CP55940), CB1R; conditions: membranes of CB1R-expressing CHO cells, 0.5 nM [3H]CP55940, 2 hr at 25° C.; read-out: CB receptor binding inhibition Ki CB1
T2 construct: expressed in transfected cells; host or cells: CHO cells (crude membrane fractions)
T2 sequence (P21554 whole entry): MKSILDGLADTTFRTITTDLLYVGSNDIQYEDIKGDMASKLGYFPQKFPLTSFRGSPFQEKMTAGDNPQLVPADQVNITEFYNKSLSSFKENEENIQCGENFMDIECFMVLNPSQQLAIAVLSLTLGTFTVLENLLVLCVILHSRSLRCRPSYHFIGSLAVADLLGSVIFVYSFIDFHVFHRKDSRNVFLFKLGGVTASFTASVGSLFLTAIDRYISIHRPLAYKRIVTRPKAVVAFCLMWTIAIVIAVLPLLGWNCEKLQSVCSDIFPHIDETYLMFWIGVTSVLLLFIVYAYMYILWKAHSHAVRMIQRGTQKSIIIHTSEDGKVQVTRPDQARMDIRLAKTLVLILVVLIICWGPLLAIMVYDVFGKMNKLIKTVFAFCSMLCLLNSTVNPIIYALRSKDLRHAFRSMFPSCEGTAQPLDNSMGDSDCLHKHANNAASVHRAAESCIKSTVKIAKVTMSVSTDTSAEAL
Procedure: as §1

human CB1R [3] = molecular target: T2, human CB1R; experiment: CBR-mediated suppression of forskolin-stimulated cAMP synthesis, CHO cells expressing CB1R; format: cell-based; conditions: 4 μM forskolin, read-out: Inhibition of cAMP synthesis IC50 CB1
Procedure: (§2) The CHO cells expressing human CB1R or CB2R were incubated with test compounds for 15 min. After the incubation, 4 μM forskolin (Sigma) was added and the cells were incubated for 20 min. The reaction was stopped by the addition of 1N HCl and the amount of cAMP in the cell supernatant was measured using an Cyclic AMP kit (CIS bio international) according to the manufacture's protocol. The cAMP amount increased by forskolin compared to that in the absence of forskolin was defined as 100%, and the IC50 value of each test compound was determined as the concentration at which 50% of the forskolin-stimulated cAMP synthesis was inhibited.

[4] = tested on: formalin-induced hyperalgesia in ICR mice; experiment: Inhibitory effect against formalin-induced hyperalgesia in ICR mice; format: in vivo; conditions: Mus musculus, male ICR mice, oral administration 2 h prior to formalin
Procedure: The inhibitory effects of the compounds of the present invention against formalin-induced hyperalgesia were examined in male ICR mice (5 W). Test compounds were dissolved in sesami oil and applied orally 2 h prior to the subcutaneous formalin injection (2% 20 μL) into the right hind paw. In this experiment, observation period was set to 30 min and divided into two parts, the first 5 minutes immediately after the formalin injection (first phase) and 10 to 30 min minutes after the formalin injection (second phase). The strength for pain sensation was evaluated by the total time for licking and biting behavior. The inhibitory effect of the test compounds on such behavior was evaluated and the ED50 value was calculated.

[5] = tested on: compound 48/80-induced pruritus in ICR strain mice; experiment: Inhibitory effect on compound 48/80-induced pruritus in ICR strain mice; format: in vivo; conditions: Mus musculus, po, 0.5 h; female ICR strain mice, orally administered once, scratching counted for 30 min; read-out: anti-pruritic effect ED50
Procedure: The experiment was carried out by the method of Inagaki et al. (Eur J Pharmacol 1999;367:361-371) with some modifications. Briefly, the back of female ICR strain mice was clipped, and compound 48/80 (3 μg/50 μL/site) was injected intradermally to elicit the response. The number of scratching behavior to the injection site by hind paws, which was observed immediately after the injection, was counted for 30 min. Test compounds, dissolved in sesame oil, were orally administered once. […] the injection of compound 48/80 at pre-determine time when the maximal plasma concentration of the compound was obtained. The inhibitory effect against pruritus was evaluated by comparing the number of scratching in the compound-administered group with that in the vehicle-administered group, and then ED50 value was calculated.

human CB2R [6] = molecular target: T1, human CB2R; experiment: CBR-mediated suppression of forskolin-stimulated cAMP synthesis, CHO cells expressing CB2R; format: cell-based; conditions: 4 μM forskolin, read-out: Inhibition of cAMP synthesis IC50 CB2
Procedure: as §2

[7] = 10 to 30 min after formalin injection, read-out: Inhibitory effect against formalin-induced hyperalgesia (ED50) Second phase
[8] = first 5 minutes after formalin injection, read-out: Inhibitory effect against formalin-induced hyperalgesia (ED50) First phase

Row | Compound | Ki (human CB2R [1]) [nM] | Ki (human CB1R [2]) [nM] | melting point [°C] | IC50 (human CB1R [3]) [nM] | ED50 [4, 7] [mg/kg] | ED50 [4, 8] [mg/kg] | ED50 [5] [mg/kg] | IC50 (human CB2R [6]) [nM]
1 | CSC(=S)N1CC2(CCCCC2)CSC1=Nc1ccc(Cl)c2ccccc12 [Compound I-33] | 1.2 | 20.7 | 181 to 182 |  |  |  |  | 
2 | CSC(=S)N1CC(C(C)C)(C(C)C)CSC1=Nc1cccc2ccccc12 [Compound I-27] | 0.3 | 13 | 121 to 122 | 8.1 |  |  |  | 
3 | CSC(=O)N1CC(C(C)C)(C(C)C)CSC1=Nc1ccc(F)c2ccccc12 [Compound I-143] | 1.4 | 29 | 109 to 110 | 35 |  |  |  | 
4 | CSC(=S)N1CC(C(C)C)(C(C)C)CSC1=Nc1ccc(N(C)C)c2ccccc12 [Compound I-43, 3-[(methylthio)thiocarbonyl]-2-(4-dimethylamino-1-naphthylimino)-5,5-diisopropyl-1,3-thiazine] | 11.3 | 21.4 |  |  |  |  |  | 
5 | CSC(=O)N1CC(C(C)C)(C(C)C)CSC1=Nc1cccc2ccccc12 [Compound I-29] | 1.7 | 6 | 98 to 99 | 17.5 | 3.5 | 3.6 |  | 
6 | CCCC1(CCC)CSC(=Nc2cccc3ccccc23)N(C(=O)SC)C1 [Compound I-25] | 1 | 42.5 | 108.5 to 109.5 |  |  |  |  | 
7 | CSC(=S)N1CC(C(C)C)(C(C)C)CSC1=Nc1cccc2cc(OCC(=O)OC(C)(C)C)ccc12 [Compound I-77] | 1.5 | 35 |  |  |  |  |  | 
8 | C=CCC1(CC=C)CSC(=Nc2cccc3ccccc23)N(C(=S)SC)C1 [Compound I-28] | 4.8 | 31.4 |  |  |  |  |  | 
9 | CCCC1(CCC)CSC(=Nc2cccc3ccccc23)N(C(=S)SC)C1 [Compound I-22] | 1.5 | 20 | 139 to 140.5 |  |  |  |  | 
10 | CSC(=S)N1CC(C(C)C)(C(C)C)CSC1=Nc1ccc(F)c2ccccc12 [Compound I-142] | 1.2 | 20 | 118 to 119 | 14 |  |  |  | 
11 | CSC(=S)N1CC2(CCCCC2)CSC1=Nc1cccc2ccccc12 [Compound I-23, 3-[(methylthio)thiocarbonyl]-2-(1-naphthylimino)-5,5-pentamethylene-1,3-thiazine] | 6 | 29.6 | 118 to 119 | 10.4 | 1 | 1.5 | 0.54 | 1.7
12 | CSC(=S)N1CC(C(C)C)(C(C)C)CSC1=Nc1ccc(Cl)c2ccccc12 [Compound I-113] | 0.9 | 10 | 86.5 to 87.5 | 13 |  |  |  | 1.5
13 | CSC(=S)N1CC2(CCCCC2)CSC1=Nc1ccc(F)c2ccccc12 [Compound I-140] | 0.8 | 59 | 139 to 140 | 27 |  |  |  | 
14 | CSC(=O)N1CC(C(C)C)(C(C)C)CSC1=Nc1ccc(Cl)c2ccccc12 [Compound I-114] | 5.9 | 25 | 111.5 to 112.5 | 24 |  |  |  | 48
15 | CSC(=S)N1CC2(CCCCC2)CSC1=Nc1ccc(C#N)c2ccccc12 [Compound I-144] | 1 | 54 | 164 to 165 | 52 |  |  |  | 
